Test results published in patent US6756368B1, “Use of cobalt chelates for treating or preventing virus infection” (The Trustees of Columbia University in the City of New York, priority 1999, dated 2004).
“And” between values parts separate entries of the source, which are not always exact repeats. Equal values may be shown once. “Also recorded” adds a separate entry of the source. Read-outs that look alike come from different tables or passages of the source.

Experiments:
HSV-1 = test: Virus entry assay, αTIF immunofluorescence; format: cell-based, HSV-1 Glasgow strain 17
Description: (i) αTIF immunofluorescence. […] Pre-warmed media (37° C.) was added to each plate, incubated at 37° C. for the indicated times and washed twice with ice cold PBS on ice. The infected cells were fixed in 3.7% formaldehyde in PBS for 30 min at room temperature and washed with PBS. The fixed monolayers were permeabilized in −20° C. acetone at −20° C. for 10 min. Cells were washed with water and then PBS. Fixed cells were incubated in 10% normal goat serum (NGS; Roche, Indianapolis, Ind.) in 0.1% Tween 20 in PBS (PBST) for 20 min at RT and washed twice with PBST. Cover slips were then incubated in PBST containing 1% NGS and 1:200 polyclonal antibody anti-VP16 antibody (Clontech Laboratories, Inc.) for 30 min and washed 6 times with PBST. The infected cell monolayers were then incubated in PBST containing 1% NGS and 1:200 goat anti-rabbit IgG antibody conjugated to fluorescein isothiocyanate (FITC; Kirkegaard and Perry Laboratories, Inc.) for 30 min and washed 6 times with PBST. The cover slips were then mounted on slides in gel/mount solution (Biomeda, Fisher, Springfield, N.J.) and viewed with a 100× lens of a Zeiss LSM 4100 confocal laser scanning system attached to a Zeiss Axiovert 100TV inverted microscope. Each image is the average of 1 μm Z series.
There are several approaches to assessing the ability of virus to adsorb and enter a cell. […]

[1] = test system: vesicular stomatitis virus (VSV); format: cell-based, VSV strain Indiana
293T cells = test: Cytotoxic effect of drug on 293T cells; format: cell-based; settings: 50 μg/ml, no virus
Description: 2 plates of cells were incub. In D2 media +50 μg/ml CTC96 (to see cytotoxic effect of drug on 293T cells)
Plates containing 293T cells +or − 50 μg/lm CTC96 were examined
plates containing 293T cells +or − CTC96 were examined

poliovirus = format: cell-based, poliovirus strain P1 Mahoney

**Q.** For `CC(/C=C(/C)[O-])=NCCN=C(C)/C=C(/C)[O-].Cc1ncc[nH]1.Cc1ncc[nH]1.[Br-].[Co+3]` [CTC-96], which “virus entry / nuclear accumulation of αTIF” value (HSV-1; 50 μg/ml, MOI 100, 30-60 min after shift to 37° C.) is on record?
**A.** no evidence for virus entering the cell; also recorded: unable to accumulate in the nucleus; also recorded: prevented nuclear accumulation

**Q.** And the “virus bound to cells” value (HSV-1; 5 min after shift up to 37° C.)?
**A.** less virus bound

**Q.** And the “inhibition of VSV” value ([1]; 50 μg/ml, Vero cells)?
**A.** 100%

**Q.** And the “% Inhibition” value ([1]; VSV (Indiana), Vero, 50 μg/ml of CTC-96, plaque assay)?
**A.** 100%

**Q.** What about the VSV plaques ([1]; dilution −5, 50 μg/ml CTC96) of the same compound?
**A.** 0

**Q.** And the VSV plaques ([1]; dilution −6, 50 μg/ml CTC96)?
**A.** 0

**Q.** And the VSV plaques ([1]; dilution −7, 50 μg/ml CTC96)?
**A.** 0

**Q.** What about the “cells rounded (CPE)” value (293T cells; examined after fixation at 28 h) of the same compound?
**A.** at least 50%

**Q.** And the “cells off of plate” value (293T cells; examined after staining)?
**A.** 50%

**Q.** What about the “remaining cells rounded up (CPE)” value (293T cells; examined after staining) of the same compound?
**A.** 50%

**Q.** And the “% Inhibition” value (poliovirus; Poliovirus (P1/Mahoney), HeLa, 50 μg/ml of CTC-96, plaque assay)?
**A.** 40%

**Q.** What about the inhibition of poliovirus (poliovirus; first run, 50 μg/ml) of the same compound?
**A.** 42%

**Q.** What about the “plaques recovered relative to −CTC-96” value (poliovirus; first run, 50 μg/ml) of the same compound?
**A.** 58%

**Q.** And the poliovirus plaques (poliovirus; first run, dilution −6, 50 μg/ml in diluent, no drug in overlay)?
**A.** 91 and 80

**Q.** And the poliovirus plaques (poliovirus; first run, dilution −7, 50 μg/ml in diluent, no drug in overlay)?
**A.** 10 and 9

**Q.** And the poliovirus plaques (poliovirus; first run, dilution −8, 50 μg/ml in diluent, no drug in overlay)?
**A.** 0

**Q.** And the inhibition of poliovirus (poliovirus; second run, 50 μg/ml)?
**A.** 42% inhibition

**Q.** And the poliovirus plaques (poliovirus; second run, dilution −6, 50 μg/ml, drug also in overlay)?
**A.** 165

**Q.** And the poliovirus plaques (poliovirus; second run, dilution −7, 50 μg/ml, drug also in overlay)?
**A.** 18 and 16
